We go through 7 compounds from US4294833A, “Substituted 4-hydroxy-isophthalic acid picolylamides having a pharmaceutical activity in thromboembolic disorders” (Societa Italo-Britannica, priority 1977, dated 1981).

One data set concerns male Swiss mice. Briefly: Acute toxicity, intraperitoneal. On the set-up: acute toxicity (LD50 / DL50): unit: mg/kg. Conditions: mouse, in vivo. A digest of the protocol:
(§1)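 Male Swiss mice (20±2 g), fasted 18 h with water ad libitum, were dosed intraperitoneally and observed for 7 days for symptoms and deaths. Preliminary LD50 (mg/kg) was obtained by graphic interpolation.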

Data set [1] can be described thus: Acute toxicity, intraperitoneal. On the set-up: acute toxicity (LD50 / DL50): unit: mg/kg. Conditions: mouse, in vivo, ip, male Swiss mice, intraperitoneal, 7 days observation; preliminary, by graphic interpolation; read-out: acute toxicity (LD50 / DL50). A digest of the protocol:
as §1

The subject of another data set is blood coagulum. Briefly: Fibrinolytic activity, Fearnley method (lysis of blood coagulum in toto). The format is in vivo. As to conditions: percent decrease of coagulum weight after 30 minutes at 37° C., 25 mg/kg intraperitoneal, rabbits; for fibrinolytic activity (percent decrease of coagulum weight) at 25 mg/kg: Oryctolagus cuniculus, ip, 0.5 h, read-out: fibrinolytic activity (FL). A digest of the protocol: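 Rabbits received compounds at 25 mg/kg i.p., and 0.2 ml ear-vein blood was drawn before and after dosing. Blood was mixed with pH 7.4 phosphate buffer and thrombin (50 NIH units/ml solution), held 30 min on ice, then 30 min at 37 °C. Activity is the percent decrease in clot weight.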

The subject of data set [2] is CaCl2-induced plasma coagulation. Description: Anticoagulant activity on PRP, Hartert's thromboelastograph. The format is in vivo, New Zealand rabbits. As to conditions: percent increase of total time for coagulum formation (r+k) vs before treatment, 25 mg/kg intraperitoneal, rabbits; for change in vivo at 25 mg/kg: Oryctolagus cuniculus, ip, read-out: anticoagulant activity (AC). In a few lines: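 Animals dosed at 25 mg/kg i.p.; PRP coagulation induced with 1.29% CaCl2 and followed by Hartert thromboelastography. Activity given as percent increase in r+k (total coagulum formation time) after treatment versus pre-treatment value.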

The test system of data set [3] is platelet aggregation induced by thrombin. Briefly: Platelet aggregation inhibitory activity in vivo (Born aggregometer), thrombin-induced. Further details: species or system New Zealand rabbits. Conditions: dose for 50% inhibition of thrombin-induced aggregation curve, rabbits, intraperitoneal, blood 2, 4 and 6 hours after injection; for ED50: Oryctolagus cuniculus, Platelet, ip, read-out: platelet antiaggregant activity (AAP), DI50, Thrombin. In a few lines: (§2)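 Fasted New Zealand rabbits under Nembutal anaesthesia (35 mg/kg i.m.) received compound intraperitoneally. Carotid blood was taken before and 2, 4 and 6 h after dosing and citrated to prepare PRP for ADP- or thrombin-induced Born aggregometry. DI50 (mg/kg) is the dose halving the aggregation curve relative to the same animal's pre-dose plasma.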

Data set [4] has as its system thrombin-induced coagulation of platelet rich plasma. Briefly: Antithrombin activity on PRP, Hartert's thromboelastograph. The data set is classed as in vivo, New Zealand rabbits. As to conditions: percent decrease of index ma/[r+k] vs before treatment, 20 mg/kg intraperitoneal, rabbits; for inhibition in vivo at 20 mg/kg: Oryctolagus cuniculus, Platelet, ip. A digest of the protocol: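 Compounds were given intraperitoneally at 20 mg/kg, and coagulation of platelet rich plasma was then induced with thrombin (60 units, pH 7.4) and recorded on a Hartert thromboelastograph. Activity is the percent decrease of the ma/(r+k) index relative to the pre-treatment value.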

For data set [5], the system named is platelet aggregation induced by ADP. Briefly: Platelet aggregation inhibitory activity in vivo (Born aggregometer), ADP-induced. Further details: species or system New Zealand rabbits. Conditions: dose for 50% inhibition of ADP-induced aggregation curve, rabbits, intraperitoneal, blood 2, 4 and 6 hours after injection; for ED50: Oryctolagus cuniculus, Platelet, ip, read-out: platelet antiaggregant activity (AAP), DI50, ADP. A digest of the protocol: as §2

The inhibition in vivo is how much of the control response was suppressed. Turning to `CCCCCCCCOc1ccc(C(=O)NCc2cccnc2)cc1C(=O)NCc1cccnc1` [Example 6], the “acute toxicity (in words)” value in the data set on male Swiss mice is recorded as “the acute toxicity increases with an increasing number of carbon atoms in the substituent R"”. Moreover, the LD50 at 168 h in data set [1] is 187 mg/kg. The fibrinolytic activity (percent decrease of coagulum weight) at 25 mg/kg in the data set on blood coagulum is 36.4%. The change in vivo at 25 mg/kg in data set [2] is 16.9%. Further, the ED50 in data set [3] turned out to be 19.4 mg/kg; in data set [5], 25.9 mg/kg. Also, testing at 20 mg/kg in data set [4] gave an inhibition in vivo of 45.4%.
Take `CCCCCCCOc1ccc(C(=O)NCc2cccnc2)cc1C(=O)NCc1cccnc1` [Example 5]: the “acute toxicity (in words)” value in the data set with male Swiss mice was “the acute toxicity increases with an increasing number of carbon atoms in the substituent R"”. Besides, in data set [1], the LD50 at 168 h was determined as 181 mg/kg. Further, the fibrinolytic activity (percent decrease of coagulum weight) at 25 mg/kg in the data set with blood coagulum was determined as 38.8%. In data set [2], the change in vivo at 25 mg/kg came out at 18%. Also, the figures for the ED50 in data set [3] and in data set [5] were 18.1 mg/kg and 24.6 mg/kg, respectively. The compound further yielded an inhibition in vivo at 20 mg/kg in data set [4] of 46.5%.
`CCCCOc1ccc(C(=O)NCc2cccnc2)cc1C(=O)NCc1cccnc1` [Example 2]: in the data set with male Swiss mice, the “acute toxicity (in words)” value was “the acute toxicity increases with an increasing number of carbon atoms in the substituent R"”. Moreover, the LD50 at 168 h in data set [1] was 573 mg/kg. Besides, the fibrinolytic activity (percent decrease of coagulum weight) at 25 mg/kg in the data set with blood coagulum worked out at 35.7%. In data set [2], the change in vivo at 25 mg/kg amounted to 23.2%. Moreover, the results for the ED50 in data set [3] and in data set [5] were 18.2 mg/kg and 26.7 mg/kg, respectively. Also, the inhibition in vivo at 20 mg/kg in data set [4] amounted to 40.1%.
For `CCCCCOc1ccc(C(=O)NCc2cccnc2)cc1C(=O)NCc1cccnc1` [Example 3], the “acute toxicity (in words)” value in the data set with male Swiss mice was “the acute toxicity increases with an increasing number of carbon atoms in the substituent R"”. In addition, in data set [1], the LD50 at 168 h is 380 mg/kg. The fibrinolytic activity (percent decrease of coagulum weight) at 25 mg/kg with blood coagulum amounted to 36.2%. The change in vivo at 25 mg/kg in data set [2] amounted to 27.4%. The ED50 in data set [3] turned out to be 17.5 mg/kg; in data set [5] it was 25.3 mg/kg. The compound further had an inhibition in vivo at 20 mg/kg in data set [4] of 43%.
In the case of `CCCOc1ccc(C(=O)NCc2cccnc2)cc1C(=O)NCc1cccnc1` [Example 1], the “acute toxicity (in words)” value with male Swiss mice is listed as “the acute toxicity increases with an increasing number of carbon atoms in the substituent R"”. Also, the LD50 at 168 h in data set [1] came out at 600 mg/kg. The fibrinolytic activity (percent decrease of coagulum weight) at 25 mg/kg in the data set on blood coagulum turned out to be 32.4%. In addition, the change in vivo at 25 mg/kg in data set [2] is 21.5%. Also, the ED50 was 19.3 mg/kg in data set [3] and 27.5 mg/kg in data set [5]. In data set [4], this compound came in with an inhibition in vivo at 20 mg/kg of 38.6%.
`CCCCCCOc1ccc(C(=O)NCc2cccnc2)cc1C(=O)NCc1cccnc1` [Example 4]: in the data set on male Swiss mice, the “acute toxicity (in words)” value is “the acute toxicity increases with an increasing number of carbon atoms in the substituent R"”. In addition, the LD50 at 168 h in data set [1] amounted to 175 mg/kg. Moreover, the fibrinolytic activity (percent decrease of coagulum weight) at 25 mg/kg in the data set on blood coagulum amounted to 41.3%. In data set [2], the change in vivo at 25 mg/kg was 19.5%. For the same compound, the ED50 in data set [3] came to 17.3 mg/kg; in data set [5], 22.9 mg/kg. The compound further returned an inhibition in vivo at 20 mg/kg in data set [4] of 47.6%.
For `CCC(C)(C)Oc1c(Cl)cc(C(=O)NCc2cccnc2)cc1C(=O)NCc1cccnc1` [Example 38], in the data set on male Swiss mice (ip, 10080 min), the “acute toxicity (LD50 / DL50)” value is listed as 322. Moreover, the “fibrinolytic activity (FL)” value in the data set on blood coagulum (25 mg/kg) was 19,3%. Besides, in data set [2] (25 mg/kg), the “anticoagulant activity (AC)” value is given as 12,9%. Moreover, the “platelet antiaggregant activity (AAP), DI50, Thrombin” value in data set [3] is 34,6 mg/kg. The “antithrombin activity (AT)” value in data set [4] (20 mg/kg) is 22,0%. For the same compound, in data set [5], the “platelet antiaggregant activity (AAP), DI50, ADP” value was 54,3 mg/kg.
